Measured values reported in the NIST ThermoML archive (doi:10.1021/je301084m).
± gives the expanded uncertainty stated by the source.

Test: molar heat capacity at constant pressure; wn = mass fraction of the nth substance listed
Details: 101 kPa, Liquid, Small sample (50 mg) DSC

O=[N+]([O-])[O-].[Li+] [lithium nitrate] + O
molar heat capacity at constant pressure [J/K/mol]
Details | 303.15 K | 313.15 K | 323.15 K | 333.15 K | 343.15 K | 353.15 K | 363.15 K | 373.15 K
w1 = 0.3 | 79.48 ± 1.8 | 80.01 ± 1.8 | 80.61 ± 1.8 | 81.26 ± 1.8 | 81.58 ± 1.8 | 82.28 ± 1.8 | 82.69 ± 1.8 | –
w1 = 0.35 | 78.8 ± 1.8 | 79.55 ± 1.8 | 80.5 ± 1.8 | 81.18 ± 1.8 | 81.76 ± 1.9 | 82.27 ± 1.9 | 82.93 ± 1.9 | –
w1 = 0.4 | 78.86 ± 1.9 | 79.65 ± 1.9 | 80.42 ± 1.9 | 81.37 ± 1.9 | 81.83 ± 1.9 | 82.62 ± 1.9 | 83.28 ± 1.9 | 84.15 ± 1.9
w1 = 0.45 | 80.9 ± 2 | 81.5 ± 2 | 81.79 ± 2 | 82.23 ± 2 | 82.71 ± 2 | 83.71 ± 2 | 84.98 ± 2 | 86.11 ± 2
w1 = 0.5 | 82.01 ± 2.1 | 82.67 ± 2.1 | 83.53 ± 2.1 | 83.73 ± 2.1 | 84.07 ± 2.1 | 84.56 ± 2.1 | 85.84 ± 2.1 | 86.64 ± 2.1
w1 = 0.55 | 83.66 ± 2.2 | 84.48 ± 2.2 | 84.72 ± 2.2 | 84.66 ± 2.2 | 85.17 ± 2.2 | 86.18 ± 2.2 | 87.3 ± 2.2 | 88.09 ± 2.2
w1 = 0.6 | – | 86.04 ± 2.3 | 86.29 ± 2.3 | 86.88 ± 2.3 | 87.07 ± 2.3 | 87.75 ± 2.3 | 88.43 ± 2.3 | 89.63 ± 2.3
